For 4 compounds, IC50 results are on record in ChEMBL document CHEMBL1759964, “Structure-based virtual screening approach to the discovery of phosphoinositide 3-kinase alpha inhibitors” (Bioorg Med Chem Lett, 2011).

Molecules are shown by their SMILES.

The target in the assay is Phosphatidylinositol 4,5-bisphosphate 3-kinase catalytic subunit alpha isoform (Homo sapiens, UniProt P42336). As to the kind of experiment: Inhibition of PI3Kalpha.
Sequence of Phosphatidylinositol 4,5-bisphosphate 3-kinase catalytic subunit alpha isoform (P42336 whole entry, canonical isoform): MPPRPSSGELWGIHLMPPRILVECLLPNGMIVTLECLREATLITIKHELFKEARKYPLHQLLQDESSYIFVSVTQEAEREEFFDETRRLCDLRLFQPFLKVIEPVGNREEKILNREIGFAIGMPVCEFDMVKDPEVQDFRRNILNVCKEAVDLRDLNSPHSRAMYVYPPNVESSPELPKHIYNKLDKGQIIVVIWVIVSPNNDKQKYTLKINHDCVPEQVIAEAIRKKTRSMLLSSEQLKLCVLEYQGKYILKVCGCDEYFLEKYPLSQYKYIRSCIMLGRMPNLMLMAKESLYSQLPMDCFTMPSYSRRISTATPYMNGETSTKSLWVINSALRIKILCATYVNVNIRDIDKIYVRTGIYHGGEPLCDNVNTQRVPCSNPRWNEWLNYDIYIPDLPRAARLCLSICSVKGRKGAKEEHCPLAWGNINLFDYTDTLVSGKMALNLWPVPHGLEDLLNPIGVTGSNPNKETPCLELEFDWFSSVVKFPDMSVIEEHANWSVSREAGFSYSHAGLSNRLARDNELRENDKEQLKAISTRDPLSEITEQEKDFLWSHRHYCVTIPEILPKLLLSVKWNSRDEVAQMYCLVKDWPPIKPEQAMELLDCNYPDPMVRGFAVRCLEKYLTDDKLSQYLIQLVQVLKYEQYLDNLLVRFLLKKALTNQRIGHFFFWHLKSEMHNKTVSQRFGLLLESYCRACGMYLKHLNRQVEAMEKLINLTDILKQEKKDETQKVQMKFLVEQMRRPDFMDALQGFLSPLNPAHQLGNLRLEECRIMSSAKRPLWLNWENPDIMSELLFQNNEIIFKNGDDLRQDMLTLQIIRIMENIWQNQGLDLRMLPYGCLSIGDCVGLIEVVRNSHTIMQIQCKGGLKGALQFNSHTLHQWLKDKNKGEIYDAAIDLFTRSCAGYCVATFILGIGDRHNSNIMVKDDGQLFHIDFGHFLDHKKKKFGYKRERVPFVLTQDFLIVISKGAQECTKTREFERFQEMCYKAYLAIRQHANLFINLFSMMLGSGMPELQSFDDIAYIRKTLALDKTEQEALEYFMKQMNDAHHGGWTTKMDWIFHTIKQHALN
On to `Cc1ccc(OCC(=O)Nc2ccc(-c3nnc(-c4ccco4)o3)cc2)cc1`, for which the IC50 (as a rule, the concentration that gives 50% inhibition) turned out to be 40 µM. This lies in the double-digit micromolar range.
`Cc1cccc(NC(=O)c2ccc(Cn3cnc4ccccc4c3=O)o2)n1` came in with a 50% inhibitory concentration (IC50) of 28 µM.
With `Cc1nc(N/C(N)=N/C(=O)c2ccccc2N)nc2ccccc12`, half-maximal inhibition (IC50) was put at 23 µM.
Next, `CCOc1ccc2nc3cc(/N=C/c4ccco4)ccc3c(N)c2c1`: 40 µM.
